Laboratory results published in patent US9931410B2, “Nanoparticles for targeted delivery of multiple therapeutic agents and methods of use” (priority 2012, dated 2018).

What was measured:
[1] = Drug loading and encapsulation efficiency (AAS for platinum, spectrophotometry for irinotecan); format: physicochemical
Description: Particle sizing was performed using dynamic light scattering (DLS) with a Zetasizer Nano ZS instrument (Malvern Instruments Ltd., U.K.). For each measurement, 100 μL or more of the sample was loaded in a disposable low-volume cuvette. Transmission electron microscopy (TEM) experiments were carried out on a JEOL 2011 instrument at an acceleration voltage of 200 kV. The TEM sample was prepared by depositing 10 μL of the nanoparticle suspension (1.0 mg/mL) onto a 300-mesh carbon-coated copper grid. Samples were blotted away after 30 minutes incubation and the grids were negatively stained for 20 minutes at room temperature with a sterile-filtered 1% (w/v) uranyl acetate aqueous solution. Drug loading and encapsulation efficiency (EE) were determined by quantifying the amount of drug in the nanoparticles. Drug loading is defined as the mass fraction of the drug in the nanoparticles, whereas EE is the fraction of initial drug that is encapsulated by the nanoparticles. After synthesis, nanoparticles were dissolved in a solution 50/50 acetonitrile/water and vortexed for several hours to induce nanoparticle dissociation. The amount of platinum inside the nanoparticles was detected using Atomic Absorption Spectroscopy (AAS), from which the load of cisplatin was calculated. Irinotecan was detected using spectrophotometry on a TECAN 1000 plate reader at a wavelength of 385 nm. A calibration curve with known concentrations of irinotecan was prepared, and the amount of irinotecan encapsulated in the nanoparticles was calculated using the calibration curve.

[2] = Drug release from nanoparticles over time in phosphate buffered saline; format: physicochemical; conditions: PLGA-PEG-LIG nanoparticles, irinotecan to cisplatin ratio 2:1, phosphate buffered saline
Description: FIG. 8 is a graph showing the percent of irinotecan and platinum release from PLGA-PEG-LIG nanoparticles over time in phosphate buffered saline.
Next, the amount of cisplatin and irinotecan encapsulated in the nanoparticles as well their encapsulation efficiency (EE) was determined (FIG. 7). As expected, cisplatin was encapsulated with very high efficiency (>80%) due to the hydrophobic-hydrophobic interaction PLGA and PLA. […] This might be due to hydrophilic-hydrophilic interactions of the platinum prodrug and irinotecan. […] The percent drug release of irinotecan and platinum of these nanoparticles over time was also assessed. Irinotecan was released from these nanoparticles at a faster rate compared to the release of the Pt-containing chemotherapeutic agent (FIG. 8).

[3] = after self-assembly with PLGA-PEG
[4] = mixed with both PLGA-PEG and PLA-cisplatin

drug loading of irinotecan [1, 3] [%] | encapsulation efficiency (EE) of irinotecan [1, 3] [%] | drug loading of irinotecan [1, 4] [%] | encapsulation efficiency (EE) of irinotecan [1, 4] [%] | rate of drug release from nanoparticles compared to the Pt-containing agent [2] | Compound | encapsulation efficiency of cisplatin ([1]; cisplatin as PLA-cisplatin in nanoparticles) [%]
– | – | – | – | – | N.N.[Cl][Pt][Cl] [cisplatin] | > 80
0.5 | 10 | 2.2 | 44 | faster rate | CCc1c2c(nc3ccc(OC(=O)N4CCC(N5CCCCC5)CC4)cc13)-c1cc3c(c(=O)n1C2)COC(=O)[C@]3(O)CC [Irinotecan, irinotecan] | –
